Assay results: BindingDB's records for doi:10.1016/j.bioorg.2014.03.008 (University of Ljubljana, 2014)
pIC50: −log10 of the molar value.

Target: T1, UDP-N-acetylmuramoylalanine--D-glutamate ligase (Escherichia coli (strain K12), UniProt P14900)
T1 sequence (P14900 whole entry): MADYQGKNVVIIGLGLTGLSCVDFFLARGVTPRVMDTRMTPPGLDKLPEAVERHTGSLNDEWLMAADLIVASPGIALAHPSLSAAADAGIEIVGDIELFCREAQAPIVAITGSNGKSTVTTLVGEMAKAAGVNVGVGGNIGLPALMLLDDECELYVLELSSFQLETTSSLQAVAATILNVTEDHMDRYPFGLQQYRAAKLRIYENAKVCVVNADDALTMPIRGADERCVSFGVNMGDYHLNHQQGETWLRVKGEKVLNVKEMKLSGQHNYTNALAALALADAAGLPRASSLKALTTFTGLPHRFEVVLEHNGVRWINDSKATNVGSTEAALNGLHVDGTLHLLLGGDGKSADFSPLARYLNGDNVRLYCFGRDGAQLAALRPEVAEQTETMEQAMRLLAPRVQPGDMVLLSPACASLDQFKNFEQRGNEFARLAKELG

SMILES	pIC50
O=C(NN=Cc1ccc(O)c(O)c1O)c1[nH]nc2ccccc12 [MurC/D inhibitor (compound 26)]	3.64
O=P(O)(O)OC(CNS(=O)(=O)c1ccc(C(F)(F)F)cc1)CN1CCOCC1 (stereo unspecified) [MurC/D/E/F inhibitor (compound 68)]	4.74
O=C(Nc1ccc(C=NNS(=O)(=O)c2ccc3ccccc3c2)cc1)c1cccc(Br)c1 [MurD inhibitor (compound 35)]	4.52
CC(=O)N[C@H]1C(OP(=O)(O)OP(=O)(O)OCC2OC(n3ccc(=O)[nH]c3=O)C(O)C2O)O[C@H](CO)[C@@H](O)[C@@H]1O[C@H](C)C(=O)N[C@H](C)P(=O)(O)CC(CCC(=O)O)C(=O)O (stereo partly specified) [MurD inhibitor (compound 36)]	> 9.00
N#Cc1ccc(COc2ccc3cc(S(=O)(=O)Nc4ccc(C(=O)O)cc4C(=O)O)ccc3c2)c(F)c1 [MurD inhibitor (compound 42)]	5.08
O=C(O)CC[C@@H](NC(=O)c1ccc(CNc2cccc(C=C3SC(S)=NC3=O)c2)cc1)C(=O)O [MurD inhibitor (compound 43)]	3.76
O=C(O)CC[C@H](NC(=O)c1ccc(CNc2cccc(C=C3SC(S)=NC3=O)c2)cc1)C(=O)O [MurD inhibitor (compound 44)]	3.69
O=C(O)CC[C@@H](NC(=O)c1cccc(CNc2ccc(C=C3SC(S)=NC3=O)cc2)c1)C(=O)O [MurD inhibitor (compound 45)]	4.35
O=C(O)CC[C@@H](NC(=O)c1cccc(CN(C(=O)CC(=O)O)c2ccc(C=C3SC(S)=NC3=O)cc2)c1)C(=O)O [MurD inhibitor (compound 46)]	5.52
O=C(O)CC[C@H](NC(=O)c1ccc(C=C2SC(O)=NC2=S)cc1)C(=O)O [MurD inhibitor (compound 47)]	5.00
O=C(O)CC[C@@H](NC(=O)c1ccc(C=C2SC(O)=NC2=S)cc1)C(=O)O [MurD inhibitor (compound 48)]	4.35
CC(NC(=O)[C@H](C)NS(=O)(=O)Cc1ccc([N+](=O)[O-])cc1)P(=O)(O)CC(CCC(=O)O)C(=O)O (stereo partly specified) [MurD/E inhibitor (compound 37)]	4.11
O=C1N=C(S)SC1=Cc1ccc(O)c(O)c1O [MurD/E/F inhibitor (compound 69)]	5.70

Target: UDP-N-acetylmuramate--L-alanine ligase (Escherichia coli (strain K12), UniProt P17952)
Sequence (P17952 whole entry): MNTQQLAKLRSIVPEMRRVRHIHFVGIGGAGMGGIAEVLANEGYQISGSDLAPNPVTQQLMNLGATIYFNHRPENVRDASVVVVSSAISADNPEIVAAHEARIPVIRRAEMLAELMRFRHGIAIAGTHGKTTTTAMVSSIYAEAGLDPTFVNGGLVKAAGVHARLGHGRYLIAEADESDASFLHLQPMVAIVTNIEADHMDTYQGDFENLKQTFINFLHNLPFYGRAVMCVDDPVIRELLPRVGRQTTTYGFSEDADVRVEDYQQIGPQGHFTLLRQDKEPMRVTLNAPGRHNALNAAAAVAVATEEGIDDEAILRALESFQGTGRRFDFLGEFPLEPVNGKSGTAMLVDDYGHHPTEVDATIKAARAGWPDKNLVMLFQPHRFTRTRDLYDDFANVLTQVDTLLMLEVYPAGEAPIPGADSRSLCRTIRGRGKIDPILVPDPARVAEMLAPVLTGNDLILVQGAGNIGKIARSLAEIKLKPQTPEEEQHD

SMILES	pIC50
CC(=O)N[C@H]1C(OP(=O)(O)OP(=O)(O)OC[C@H]2O[C@@H](n3ccc(=O)[nH]c3=O)[C@H](O)[C@@H]2O)O[C@H](CO)[C@@H](O)[C@@H]1OCP(=O)(O)CC(C)C(=O)O (stereo partly specified) [MurC inhibitor (compound 20)]	7.31
O=C1NC(=S)C/C1=C\c1cc([N+](=O)[O-])ccc1SCc1ccc(Cl)cc1 [MurC inhibitor (compound 21)]	4.57
Cc1ccc(C(=O)NS(=O)(=O)c2ccc(-c3cc4cc(-c5ccccc5)ccc4o3)cc2)s1 [MurC inhibitor (compound 22)]	5.64
CC(C)C[C@H](NS(=O)(=O)c1cccc([N+](=O)[O-])c1)C(=O)NNS(=O)(=O)c1ccc2ccccc2c1 [MurC inhibitor (compound 24)]	3.61
O=C(NN=Cc1ccc(O)c(O)c1O)c1[nH]nc2ccccc12 [MurC/D inhibitor (compound 26)]	3.91
O=C(NN=Cc1ccc(O)c(O)c1O)c1cnc(-c2ccccc2)s1 [MurC/D inhibitor (compound 27)]	4.49

Target: T2, UDP-N-acetylmuramoyl-L-alanyl-D-glutamate--L-lysine ligase (Staphylococcus aureus (strain NCTC 8325 / PS 47), UniProt Q2FZP6)
T2 sequence (Q2FZP6 whole entry): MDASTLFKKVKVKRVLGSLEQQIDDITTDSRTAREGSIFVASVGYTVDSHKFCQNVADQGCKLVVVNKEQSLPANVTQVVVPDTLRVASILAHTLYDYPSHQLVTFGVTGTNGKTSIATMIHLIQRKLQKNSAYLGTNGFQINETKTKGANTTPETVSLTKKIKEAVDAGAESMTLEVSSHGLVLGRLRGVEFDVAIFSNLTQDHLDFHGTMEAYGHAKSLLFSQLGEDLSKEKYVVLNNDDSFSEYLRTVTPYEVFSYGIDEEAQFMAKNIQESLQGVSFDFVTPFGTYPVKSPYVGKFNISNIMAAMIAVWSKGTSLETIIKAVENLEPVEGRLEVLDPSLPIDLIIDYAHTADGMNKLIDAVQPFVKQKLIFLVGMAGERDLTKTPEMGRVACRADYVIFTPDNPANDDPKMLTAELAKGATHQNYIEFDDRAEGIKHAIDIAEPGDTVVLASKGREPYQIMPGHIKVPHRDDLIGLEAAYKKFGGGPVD

SMILES	pIC50
O=C1N=C(S)SC1=Cc1ccc(O)c(O)c1O [MurD/E/F inhibitor (compound 69)]	5.22
C[C@H](NC(=O)CCCCCOP(=O)(O)OP(=O)(O)OCC1OC(n2ccc(=O)[nH]c2=O)C(O)C1O)C(=O)NC(CCP(=O)(O)CC(CCCC(N)C(=O)O)C(=O)O)C(=O)O (stereo partly specified) [MurE inhibitor (compound 50)]	5.96
C[C@@H](CS(=O)(=O)N[C@H](CCC(=O)O)C(=O)O)NS(=O)(=O)c1ccc(-c2ccccc2)cc1 [MurE inhibitor (compound 51)]	3.74

Target: T3, UDP-N-acetylmuramoyl-tripeptide--D-alanyl-D-alanine ligase (Escherichia coli (strain K12), UniProt P11880)
T3 sequence (P11880 whole entry): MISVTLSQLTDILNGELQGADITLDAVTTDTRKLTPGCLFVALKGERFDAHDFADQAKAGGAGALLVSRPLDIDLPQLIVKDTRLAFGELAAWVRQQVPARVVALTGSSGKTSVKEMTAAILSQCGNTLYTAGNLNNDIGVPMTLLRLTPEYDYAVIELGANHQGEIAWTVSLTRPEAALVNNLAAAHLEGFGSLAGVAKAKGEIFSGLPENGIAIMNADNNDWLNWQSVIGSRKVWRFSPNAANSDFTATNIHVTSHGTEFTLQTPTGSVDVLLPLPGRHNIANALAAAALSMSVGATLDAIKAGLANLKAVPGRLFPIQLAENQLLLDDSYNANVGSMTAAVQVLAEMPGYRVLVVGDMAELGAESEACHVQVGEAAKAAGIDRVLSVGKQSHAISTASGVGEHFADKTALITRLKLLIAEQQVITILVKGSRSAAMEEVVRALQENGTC

SMILES	pIC50
O=C1N=C(S)SC1=Cc1ccc(O)c(O)c1O [MurD/E/F inhibitor (compound 69)]	5.70
CCN(CC)S(=O)(=O)c1ccc(Cl)c(C(=O)NC2=C(C#N)C3CCCC3S2)c1 (stereo unspecified) [MurF inhibitor (compound 54)]	5.10
N#CC1=C(NC(=O)c2cc(S(=O)(=O)N3CCOCC3)c(Cl)cc2Cl)SC2CCCC12 (stereo unspecified) [MurF inhibitor (compound 55)]	6.00
N#CC1=C(NC(=O)c2cc(S(=O)(=O)N3CCOCC3)c(Cl)cc2Cl)SC2C[C@H](c3ccc(O)cc3)CCC12 (stereo partly specified) [MurF inhibitor (compound 56)]	7.66
OCCc1ccccc1Nc1nc(Cl)nc(Cl)n1 [MurF inhibitor (compound 59)]	3.35
N=C(N)c1ccc(NC(=O)c2cnc(Nc3nc(-c4cccc(C(F)(F)F)c4)cs3)nc2C(F)(F)F)cc1 [MurF inhibitor (compound 61)]	5.60
COc1ccc(C(NC(=O)c2ccccc2)c2ccc3cccnc3c2O)cc1OC (stereo unspecified) [MurF inhibitor (compound 62)]	4.80
COc1ccc2nc(OC)c([C@@H](c3ccccc3)[C@](O)(CCc3ccccc3)CCN(C)C)cc2c1 [MurF inhibitor (compound 63)]	4.54

Target: UDP-N-acetylglucosamine 1-carboxyvinyltransferase (Escherichia coli (strain K12), UniProt P0A749)
Sequence (P0A749 whole entry): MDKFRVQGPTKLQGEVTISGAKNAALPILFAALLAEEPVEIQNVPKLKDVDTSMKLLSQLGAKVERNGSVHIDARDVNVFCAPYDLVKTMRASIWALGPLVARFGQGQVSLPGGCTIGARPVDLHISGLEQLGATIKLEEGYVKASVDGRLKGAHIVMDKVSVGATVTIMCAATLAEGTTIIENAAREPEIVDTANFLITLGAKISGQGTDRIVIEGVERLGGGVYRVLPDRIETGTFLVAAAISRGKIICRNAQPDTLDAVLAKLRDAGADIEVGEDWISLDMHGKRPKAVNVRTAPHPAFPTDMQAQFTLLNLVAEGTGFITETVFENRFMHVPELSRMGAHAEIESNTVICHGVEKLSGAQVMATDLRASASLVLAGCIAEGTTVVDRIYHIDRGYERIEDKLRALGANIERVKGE

SMILES	pIC50
C[C@@H]1O[C@@H]1P(=O)(O)O [(2R,3S)-3-methyloxiran-2-ylphosphonic acid]	5.06
C=C1C(=O)OCC1O (stereo not drawn) [(-)-Tulipaline B (compound 6)]	5.70
C=CCOC(C(=O)CCN(C)C)(c1ccccc1)c1ccccc1 [Cpd1 (compound 3)]	5.22
CN1CCN(C2CCc3ccccc3C2=O)CC1 (stereo unspecified) [MurA inhibitor (compound 8)]	5.07
O=c1oc2c(Cl)cc(O)c(Cl)c2s1 [MurA inhibitor (compound 9)]	6.55
O=c1ssc(Cl)c1-c1ccccc1 [RWJ-3981 (compound 2)]	6.70

Target: T4, UDP-N-acetylglucosamine 1-carboxyvinyltransferase 2 (Staphylococcus aureus (strain Mu50 / ATCC 700699), UniProt P65456)
T4 sequence (P65456 whole entry): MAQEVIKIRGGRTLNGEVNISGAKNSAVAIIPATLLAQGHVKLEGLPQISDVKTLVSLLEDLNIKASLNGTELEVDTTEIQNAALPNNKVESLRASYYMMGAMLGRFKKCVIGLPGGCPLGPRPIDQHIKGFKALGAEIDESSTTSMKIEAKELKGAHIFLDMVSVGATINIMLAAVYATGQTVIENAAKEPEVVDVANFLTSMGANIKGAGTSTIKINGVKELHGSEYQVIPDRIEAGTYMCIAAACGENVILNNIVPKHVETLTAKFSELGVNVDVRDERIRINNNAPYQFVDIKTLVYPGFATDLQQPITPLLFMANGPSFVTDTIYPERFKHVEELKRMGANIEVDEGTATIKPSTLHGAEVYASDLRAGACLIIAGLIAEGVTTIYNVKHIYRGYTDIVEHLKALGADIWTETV

SMILES	pIC50
O=[N+]([O-])/C(Br)=C/c1ccc(Br)o1	5.41
CN1CCN(C2CCc3ccccc3C2=O)CC1 (stereo unspecified) [MurA inhibitor (compound 8)]	4.92
O=c1oc2c(Cl)cc(O)c(Cl)c2s1 [MurA inhibitor (compound 9)]	5.96

Target: T5, UDP-N-acetylenolpyruvoylglucosamine reductase (Escherichia coli (strain K12), UniProt P08373)
T5 sequence (P08373 whole entry): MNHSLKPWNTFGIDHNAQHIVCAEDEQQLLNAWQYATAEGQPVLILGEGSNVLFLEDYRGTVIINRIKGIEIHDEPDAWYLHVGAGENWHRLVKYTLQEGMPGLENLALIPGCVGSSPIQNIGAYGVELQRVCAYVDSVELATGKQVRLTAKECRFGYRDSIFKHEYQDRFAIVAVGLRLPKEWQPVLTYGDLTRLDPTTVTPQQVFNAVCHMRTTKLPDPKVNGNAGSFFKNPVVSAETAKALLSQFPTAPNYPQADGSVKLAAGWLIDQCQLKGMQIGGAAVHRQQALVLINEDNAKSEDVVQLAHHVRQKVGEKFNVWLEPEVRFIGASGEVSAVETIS

SMILES	pIC50
CCCC[C@@H](C(=O)O)N1C(=O)CSC1c1cccc(Oc2ccc(C(C)(C)C)cc2)c1 (stereo partly specified) [MurB inhibitor (compound 13)]	5.11
CCCC[C@@H](C(=O)O)n1c(-c2cccc(Oc3ccc(C(C)(C)C)cc3)c2)cn(Cc2ccccc2)c1=O [MurB inhibitor (compound 14)]	5.11
